Data taken from US11618738B2, “Compound and application thereof in treating inflammation or inflammation-related diseases” (SICHUAN CENTER FOR TRANSLATIONAL MEDICINE OF TRADITIONAL …, priority 2017, dated 2023).
Where two headings read alike, the source gives them in different places.

Experiments:
[1] = system: acute gouty arthritis in rats induced by sodium urate crystals; assay: Foot swelling in rats with acute gouty arthritis induced by sodium urate crystals; assay type: in vivo; conditions: for Foot swelling: 16.67 mg/kg once a day, mean ± SD
Description: Injecting sodium urate crystals into the joint cavity to establish an acute gouty arthritis model. Its pathological and clinical manifestations are very similar. It is a classic method commonly used in animal experiments to study gouty arthritis. This experiment will explore the effects of UTLOH series drugs on animals with acute gouty arthritis induced by sodium urate.
SPF grade SD rats, half female and half male (200-220 g/mouse), were randomly grouped by weight. The drug was administered once a day, for 3 consecutive days. […] Rats in the normal group were injected with an equal volume of sterile saline to the back of the right ankle joint. The administration was continued after modeling, once a day for 3 consecutive days. The ankle joint and foot volume of the rats in each group were measured respectively before modeling and 2 h, 4 h, 8 h, 24 h and 48 h after modeling.

[2] = system: 10% egg white-induced foot swelling in rats; assay: 10% egg white-induced foot swelling in rats; assay type: in vivo; conditions: for Foot swelling: 6.67 mg/kg gavage once a day for 3 days, mean ± SD
Text: Injecting 10% egg white into rat paws can cause early acute inflammation such as redness, heat, swelling, and pain in rat paws. In this experiment, the anti-inflammatory effects of UTLOH series compounds were observed by the degree of swelling of the paws of rats after inflammation.
SPF grade SD rats, half female and half male (100-120 g/mouse) were randomly grouped according to body weight. Each group was given the corresponding drugs by gavage, once a day, for 3 consecutive days, with a gavage volume of 1 ml/100 g. Before the experiment, the ankle joint of the right hind foot of each group of rats was marked, and the foot volume of each group of rats was measured twice with a rat foot volume meter, and the average of the two times was taken as the […]. 30 minutes after the last administration, the rats in each group were given a subcutaneous needle in the right hind paw, and injected with 10% fresh egg white solution 0.1 ml/mouse to cause inflammation, establishing a rat model of paw swelling. The post-inflamed foot volume in mice was measured twice at 1 h, 2 h, 3 h, and 4 h after inflammation, and the average of the two times was taken as the post-inflamed foot volume. The normal group was given 1 ml/100 g volume of 0.5% CMC-Na solution by gavage according to body weight.

[3] = system: PGE2 induced by LPS; assay: Inhibition of LPS-induced PGE2 in RAW 264.7 cells (ELISA); assay type: cell-based, mice; conditions: for PGE2 inhibition (%): RAW 264.7 cells, LPS 100 ng/mL, overnight, test concentration not given; for PGE2 inhibition rate (in words): same experimental method as Table 1
Description: (§1) This example is taken from a previous publication by Song et al.^[1]. In brief, mice RAW 264.7 cells were treated with increasing doses of each test compound at 37° C. for 1 hour. Thereafter, the cells were attacked with 20 μL/well of LPS (equivalent to a final concentration of 100 ng/mL). The cells were further incubated overnight at 37° C. A commercial ELISA assay kit obtained from R&D Systems (Minneapolis, Minn.) was used to determine the level of PGE2 in the supernatant, and three parallel experiments were performed. The optical density of each well was measured using a BioTek Epoch microplate reader (Winooski, Vt.) set to 450 nm. The NO study was performed in a similar manner, but Greiss reagent was used to monitor the level of NO, and the results were read at 550 nm.

[4] = system: NO induced by LPS; assay: Inhibition of LPS-induced NO in RAW 264.7 cells (Greiss reagent); assay type: cell-based, mice; conditions: for IC50: Mus musculus, RAW264.7
Text: Nitric oxide (NO) is a signaling molecule that plays a key role in the pathogenesis of inflammation. Under abnormal conditions, NO is a pro-inflammatory mediator that causes inflammation due to its overproduction. Therefore, the regulation of elevated NO levels by stimulants (such as LPS) has been widely used as a screening method to identify anti-inflammatory drugs. Since NO is oxidized into nitrite and nitrate, the determination of total NO2^−/NO3^− is a conventional method for determining NO levels, and Griess reagent is usually used in this type of experiment.
as §1

[5] = RAW 264.7 cells, LPS 100 ng/mL, overnight, read-out: NO IC50 (μM), class
[6] = RAW 264.7 cells, LPS 100 ng/mL, overnight, read-out: NO IC50 (μM), value in brackets
[7] = same method as Table 1, given as 10-50 μM, or <10 μM, read-out: IC50 of NO

SMILES | PGE2 inhibition (%) [3] [%] | IC50 [4, 5] [µM] | IC50 [4, 6] [µM] | PGE2 inhibition rate (in words) [3] | IC50 [4, 7] [µM] | further results
COc1cc2c(c(OC)c1OC)-c1ccc(OC)c(=O)cc1[C@@H](NC(C)=O)CC2 [Colchicine, reference compound] |  |  |  |  |  | Foot swelling ([1]; 2 h after modeling): 0.16 ± 0.12 mL; Foot swelling ([1]; 4 h after modeling): 0.21 ± 0.10 mL; Foot swelling ([1]; 8 h after modeling): 0.19 ± 0.10 mL; Foot swelling ([1]; 24 h after modeling): 0.20 ± 0.10 mL; Foot swelling ([1]; 48 h after modeling): 0.07 ± 0.09 mL; degree of foot swelling versus model group (in words) ([1]; gavage, at each time point): significantly lower
Cc1oncc1C(=O)Nc1ccc(C(F)(F)F)cc1 [Leflunomide, reference compound] | 54.0 | > 250 | 298 |  |  | Foot swelling ([2]; 1 h after inflammation): 0.63 ± 0.14 mL; Foot swelling ([2]; 2 h after inflammation): 0.62 ± 0.15 mL; Foot swelling ([2]; 3 h after inflammation): 0.54 ± 0.14 mL; Foot swelling ([2]; 4 h after inflammation): 0.43 ± 0.11 mL; degree of foot swelling compared with the normal group (in words) ([2]; at 1 h and 2 h): significantly reduced
C/C(O)=C(\C#N)C(=O)Nc1ccc(C(F)(F)F)cc1 [Teriflunomide, reference compound] | 70.2 | 150 to 250 | 175 |  |  | 
Cc1cc(C(=O)Nc2cccc(O)c2)no1 [UTLOH-4b] | 64.0 | < 10 | 7.7 |  |  | 
Cc1cc(C(=O)Nc2ccc(O)cc2)no1 [UTLOH-4c] | 73.1 | < 10 | 6.3 |  |  | inhibition on PGE2 compared to leflunomide (in words) ([3]; compared to leflunomide): stronger; inhibition of LPS-induced NO compared with leflunomide and teriflunomide (in words) ([4]; compared with leflunomide and teriflunomide): more strongly
Cc1cc(C(=O)Nc2cccc(O)c2O)no1 [UTLOH-4d] |  |  |  | very good | ≤ 50 | 
Cc1cc(C(=O)Nc2cc(O)ccc2O)no1 [UTLOH-4f] |  |  |  | very good | ≤ 50 | 
Cc1cc(C(=O)Nc2c(O)cccc2O)no1 [UTLOH-4g] |  |  |  | very good | ≤ 50 | 
Cc1cc(C(=O)Nc2ccc(O)c(O)c2)no1 [UTLOH-4h] |  |  |  | very good | ≤ 50 | 
Cc1cc(C(=O)Nc2cc(O)cc(O)c2)no1 [UTLOH-4i] |  |  |  | very good | ≤ 50 | 
Cc1cc(C(=O)Nc2c(O)cc(O)cc2O)no1 [UTLOH-4k] |  |  |  | very good | ≤ 50 | 
